Laboratory results taken from patent publication US20180249707A1, “METHOD OF CONTROLLING ALGAE IN A BODY OF WATER” (priority 2013, published 2018).

Assays:
M. aeruginosa UTEX 2385 = assay: MIC 96-well microtiter plate assay in BG-11, 10 days; assay type: cell-based, Microcystis aeruginosa; conditions: for In vivo chlorophyll a of M. aeruginosa: 10 days, initial 0.1 ug/L
Protocol: MICs for the samples against M. aeruginosa were determined in a standard 96-well microtiter plate assay in BG-11 with a starting inoculum of ˜1×10^5 cells/mL. Algae plates were incubated for 10 days. MIC concentrations were determined visually, in vivo chlorophyll a was determined fluorometrically, and cell density was determined via direct counting. Samples were tested in duplicate.

Microcystis aeruginosa = assay: 15-day flask exposure of Microcystis aeruginosa to DDA and Cutrine-Plus; assay type: cell-based; conditions: for Cell Densities of Microcystis aeruginosa 15 days after: initial 4.5×10^4 cells/mL
Protocol: (§1) The experiment was conducted for 15 days and was initiated using 100 mL BG-11 medium contained in 200 mL flasks. […] The experiment was initiated by exposing the algae to 0.1, 0.2, 0.4, 0.8, and 1.6 mg/L as DDA, 0.2, 0.6, 1.0 mg Cu/L Cutrine®-Plus, and combinations of DDA and Cutrine®-Plus. […] The solution was heated in a water bath and diluted to 70 mg/L using warmed deionized water. The concentration of DMSO was approximately 350 mg/L in the test beakers. Cutrine®-Plus stock solution was made at 50 mg/L using deionized water. Three replicates of each exposure concentration, along with three replicates of an untreated reference were tested. Each sample was Maintained at room temperature with 12-hours of light and 12-hours dark photo period.

Cladophora sp. = assay: 15-day flask exposure of Cladophora sp. to DDA and Cutrine-Plus; assay type: cell-based; conditions: at concentrations comparable to Cutrine-Plus
Protocol: as §1, with “and 12-h” for “and 12-hours”, “dark photoperiod. […] 15 days after exposure. The Bars in FIG. 3 sharing the same letter are not different according to Fishers Protected LSD test at p≤0.05 significance level.” for “dark photo period.”

[1] = Solubility remark on stock solution preparation; assay type: physicochemical; conditions: stock solution made using 2% DMSO solution, heated

| SMILES | In vivo chlorophyll a of M. aeruginosa (M. aeruginosa UTEX 2385; 0.031 active ppm) [µg/L] | In vivo chlorophyll a of M. aeruginosa (M. aeruginosa UTEX 2385; 0.063 active ppm) [µg/L] | In vivo chlorophyll a of M. aeruginosa (M. aeruginosa UTEX 2385; 0.125 active ppm) [µg/L] | In vivo chlorophyll a of M. aeruginosa (M. aeruginosa UTEX 2385; 0.25 active ppm) [µg/L] | In vivo chlorophyll a of M. aeruginosa (M. aeruginosa UTEX 2385; 0.5 active ppm) [µg/L] | log reduction in M. aeruginosa cells (Microcystis aeruginosa; 0.4 mg/L, 15 days after start, compared to untreated reference) [log] | Chlorophyll a content of M. aeruginosa compared to untreated reference algae (Microcystis aeruginosa; 0.2 to 1.6 ppm (mg/L), 15 days after start, p<0.01) | Cell Densities of Microcystis aeruginosa 15 days after (Microcystis aeruginosa; DDA 0.1 mg/L, 15 days) | Cell Densities of Microcystis aeruginosa 15 days after (Microcystis aeruginosa; DDA 0.2 mg/L, 15 days) | Cell Densities of Microcystis aeruginosa 15 days after (Microcystis aeruginosa; DDA 0.4 mg/L, 15 days) | Cell Densities of Microcystis aeruginosa 15 days after (Microcystis aeruginosa; DDA 0.8 mg/L, 15 days) [cells/mL] | Cell Densities of Microcystis aeruginosa 15 days after (Microcystis aeruginosa; DDA 1.6 mg/L, 15 days) [cells/mL] | concentration necessary to achieve similar results as Cutrine-Plus (cell count data) (Microcystis aeruginosa; M. aeruginosa control, 15 days) [mg/L] | effectiveness as an algaecide on Microcystis aeruginosa (Microcystis aeruginosa; at concentrations comparable to Cutrine-Plus) | effectiveness as an algaecide on Cladophora sp. (Cladophora sp.) | solubility [1] | MIC (M. aeruginosa UTEX 2385; Microcystis aeruginosa, UTEX2385, 240 h, determined visually, 10 days incubation, read-out: MIC values per individual sample, M. aeruginosa) [µg/mL] |
| --- | --- | --- | --- | --- | --- | --- | --- | --- | --- | --- | --- | --- | --- | --- | --- | --- | --- |
| CCCCCCCCCCCCN [dodecylamine] | 7.85 | 5.75 | 2.60 | 0.35 | 0.00 | 1 | reduced | 5.2 × 10^6 cells/mL | 6.7 × 10^6 cells/mL | 8.0 × 10^5 cells/mL | <10000 | <10000 | 0.8 | effective | effective | low solubility |  |
| CCCCCCCCCCCCN.Cl [1-dodecylammonium chloride] | 7.20 | 4.65 | 2.05 | 0.15 | 0.00 |  |  |  |  |  |  |  |  |  |  |  | 0.25 |
